Source: the supplement of paper PMC8612539

Test system: Histophilus somni
Assay: minimum inhibitory concentration (MIC)
Description: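 Broth microdilution MIC (Sensititre BOPO7F bovine plate, CLSI methods) of 19 antimicrobials against field isolates of P. multocida, M. haemolytica, H. somni (deep nasopharyngeal swabs) and E. coli, Enterococcus spp. (rectal swabs) from weaned dairy heifers. Incubation 16-24 h at 35 C. MIC is the lowest concentration preventing visible growth. Values with <= or > lie at the tested range limits. Trimethoprim-sulfamethoxazole is given as the trimethoprim component of a 1:19 mixture.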

Measured: minimum inhibitory concentration

CO/N=C(\C(=O)N[C@@H]1C(=O)N2C(C(=O)O)=C(CSC(=O)c3ccco3)CS[C@H]12)c1csc(N)n1 [Ceftiofur]
≤ 0.25 µg/mL: isolate (source animal id): 3 | isolate (source animal id): 4 | isolate (source animal id): 7 | isolate (source animal id): 14 | isolate (source animal id): 15 | isolate (source animal id): 17 | isolate (source animal id): 18 | isolate (source animal id): 20 | isolate (source animal id): 23 | isolate (source animal id): 45 | isolate (source animal id): 53 | isolate (source animal id): 83 | isolate (source animal id): 88 | isolate (source animal id): 92 | isolate (source animal id): 93 | isolate (source animal id): 99 | isolate (source animal id): 100 | isolate (source animal id): 105 | isolate (source animal id): 107 | isolate (source animal id): 108 | isolate (source animal id): 109 | isolate (source animal id): 110 | isolate (source animal id): 117 | isolate (source animal id): 121 | isolate (source animal id): 123 | isolate (source animal id): 124 | isolate (source animal id): 127 | isolate (source animal id): 128 | isolate (source animal id): 130 | isolate (source animal id): 132 | isolate (source animal id): 135 | isolate (source animal id): 140 | isolate (source animal id): 141 | isolate (source animal id): 142 | isolate (source animal id): 144 | isolate (source animal id): 146 | isolate (source animal id): 147 | isolate (source animal id): 151 | isolate (source animal id): 153 | isolate (source animal id): 154 | isolate (source animal id): 156 | isolate (source animal id): 157 | isolate (source animal id): 176 | isolate (source animal id): 183 | isolate (source animal id): 186 | isolate (source animal id): 196 | isolate (source animal id): 198 | isolate (source animal id): 200 | isolate (source animal id): 206 | isolate (source animal id): 208 | isolate (source animal id): 210 | isolate (source animal id): 212 | isolate (source animal id): 215 | isolate (source animal id): 216 | isolate (source animal id): 218 | isolate (source animal id): 219 | isolate (source animal id): 224 | isolate (source animal id): 228 | isolate (source animal id): 230 | isolate (source animal id): 233 | isolate (source animal id): 238 | isolate (source animal id): 239 | isolate (source animal id): 241 | isolate (source animal id): 242 | isolate (source animal id): 243 | isolate (source animal id): 245 | isolate (source animal id): 246 | isolate (source animal id): 247 | isolate (source animal id): 248 | isolate (source animal id): 250 | isolate (source animal id): 251 | isolate (source animal id): 252 | isolate (source animal id): 254 | isolate (source animal id): 258 | isolate (source animal id): 259 | isolate (source animal id): 262 | isolate (source animal id): 264 | isolate (source animal id): 265 | isolate (source animal id): 266 | isolate (source animal id): 267 | isolate (source animal id): 269 | isolate (source animal id): 271 | isolate (source animal id): 272 | isolate (source animal id): 274 | isolate (source animal id): 276 | isolate (source animal id): 278 | isolate (source animal id): 280 | isolate (source animal id): 281 | isolate (source animal id): 283 | isolate (source animal id): 288 | isolate (source animal id): 291 | isolate (source animal id): 292 | isolate (source animal id): 296 | isolate (source animal id): 306 | isolate (source animal id): 336 | isolate (source animal id): 337 | isolate (source animal id): 341
